Assay results reported in publication PMC12040169 (PLOS Biology, 2025).

Test: in vitro
Conditions: human, hela cells, % viability

SMILES	viability at 28.5 h, 10 µM [%]
COc1ccc(O)c(C(=O)c2cnn(C(=O)c3ccc(C)cc3)c2)c1 [CBK297546]	86.3
COc1ccc(C(=O)N2CCC3(CCN(Cc4c(F)cccc4F)C3)C2)cc1OC (stereo not drawn) [CBK132152]	92.8
O=C(Cc1ccc(F)cc1Cl)N1CCC(O)(c2ccccn2)CC1 [CBK283755]	98.1
Cc1cc(S(=O)(=O)NCC(=O)O)ccc1F [CBK266632]	112
NC(=O)C1CCN(Cc2cc3c(cc2[N+](=O)[O-])OCO3)CC1 [CBK261885]	91.7
O=C(CNC(=O)c1ccc(Br)cc1)NC1CCCC1 [CBK269591]	90.3
Cc1cnc(Cl)c2ncn([C@H]3C[C@@H](O)[C@@H](CO)O3)c12 [CBK201234]	97.7
CC(C)(C)N1C(=O)c2ccc(C(=O)Nc3ccccc3C(=O)O)cc2C1=O [CBK287004]	112
CN1C(=O)c2ccccc2OCCCCC[C@H]2[C@@H]1CCCN2C(=O)c1cc2c([nH]c1=O)CCC2 [CBK292034]	114
O=C(O)CNC(=O)c1ccc(S(=O)(=O)N2CCOCC2)cc1 [CBK267437]	112
COC(=O)CCC(=O)N1CCCC2(CCN(C(=O)c3ccoc3)C2)C1 (stereo not drawn) [CBK160988]	100
Cc1nn(CC(=O)NC(C)C)c(=O)c2cc3sccc3n12 [CBK284048]	104
O=C(c1ccc(-n2cccn2)nc1)N1CCN(c2ccccc2O)CC1 [CBK297794]	83.8
COc1ccccc1NC(=O)NC(=O)C1CCN(C)CC1 [CBK034830]	96.6
OC(CN1CCC2(CC1)CC(O)c1cc(F)ccc1O2)c1ccc(-c2ccccc2)cc1 (stereo not drawn) [CBK286331]	102
NCCCOc1cc(N2CCCC2)ncn1 [CBK115285]	106
O=C(CCn1c(=O)oc2ccccc21)Nc1ccncc1 [CBK287466]	92.5
Cc1ccc2[nH]c(SCC(=O)Nc3cccc(NC(=O)C45CC6CC(CC(C6)C4)C5)c3)nc2c1 [CBK265679]	96.3
CN(C)S(=O)(=O)NCCc1ccc(S(N)(=O)=O)cc1 [CBK022388]	99.5
COc1cc2c(cc1OC)CN(C(=O)c1ccccn1)CC2 [CBK115864]	98.5
CCn1cc(CN(CCCn2ccnc2)Cc2cccc(F)c2)cn1 [CBK283124]	107
CC(=O)C1=C(C)N(CC2CCCO2)C(=O)C1(NC(=O)c1ccc(C(C)(C)C)cc1)C(F)(F)F (stereo not drawn) [CBK268043]	93.2
COc1ccc2ccccc2c1CNCCCN1CCOCC1 [CBK278209C]	93.8

SMILES	viability at 28.5 h, 10 µM [%]
N#Cc1ccccc1Cn1cc(C(=O)C(N)=O)c2ccccc21 [CBK269862]	93.5
COC(=O)c1cccc(Cn2cc(/C=C\[N+](=O)[O-])c3ccccc32)c1 [CBK269020]	93.4
CCc1ccc(C(=O)C(C)OC(=O)c2nc3nc(C)cc(C)n3n2)cc1 (stereo not drawn) [CBK305023]	87.7
N=c1n(CCN2CCCCC2)c2ccccc2n1CC(O)c1cccs1 (stereo not drawn) [CBK262908C]	94.9
CN(Cc1ccc(-c2ccc(S(C)(=O)=O)cc2)nc1)C1CCN(C(=O)c2ccc(Cl)c(Cl)c2)CC1 [CBK164101T]	104
Cc1ccc(CNC(=O)c2ccc3c(c2)NC(=O)C(N2CCCC2)S3)cc1 (stereo not drawn) [CBK071788]	84.6
Cc1ccc(C2NS(=O)(=O)NC2=N)cc1 (stereo not drawn) [CBK263848]	95.2
COC(=O)Cc1nc(NS(=O)(=O)c2ccc(Oc3cccc(Cl)c3C#N)cc2)sc1C [CBK000744]	98.3
O=C(O)C1(Oc2ccc3ncccc3c2)CCN(C2CCCCC2)CC1 [CBK306591]	92.4
CCNC(=O)O[C@@H]1CO[C@H]2[C@@H]1OC[C@@H]2NC(=O)Nc1ccc(C(C)=O)cc1 [CBK289473]	93.5
COc1ccc(C(=O)N2CCC3(CCCN(C(=O)c4ccco4)C3)C2)cc1OC (stereo not drawn) [CBK131647]	98.2
COc1ccc(NS(=O)(=O)c2ccc(OCC(=O)N3CCN(C)CC3)cc2)cc1Cl [CBK269565]	85.8
CCCCOc1nccnc1-c1cnn(C)c1 [CBK107085]	92.8
Cc1cc2nccc([C@H]3CC[C@H](CNC(=O)C(C)C)CC3)n2n1 [CBK283475]	94.9
CCC(C)NC(=O)C1=CCN(S(C)(=O)=O)C1 (stereo not drawn) [CBK282861]	101
CCCC/C=C/c1cc(NCCC)n2nccc2n1 [CBK037127]	99.1
COCCN(Cc1cnn(C)c1)C(=O)Cc1ccc(Cl)cc1 [CBK307407]	97
Cc1cc(F)ccc1S(=O)(=O)NCC1CC(=O)Nc2ccccc21 (stereo not drawn) [CBK305210]	86.5
NC(=O)C1CCN(C2=NC(=O)/C(=C/c3cn(-c4ccccc4)nc3-c3ccc(F)cc3)S2)CC1 [CBK265175]	106
CC(C)(CO)Cn1c(=O)[nH]c2ncc(-c3ccco3)nc21 [CBK064721]	98.8
c1ccc2c(c1)OCC(COc1nccnc1OC1CCNCC1)O2 (stereo not drawn) [CBK070766T]	102
CN(C)S(=O)(=O)N(C)c1ccc(C(=O)O)cc1 [CBK287244]	105
O=C(Cc1ccccc1)N1CCN(C(=O)c2ccco2)CC1 [CBK068325]	93.4

SMILES	viability at 28.5 h, 10 µM [%]
CC(C)S(=O)(=O)N1CC2CCCC(O)(c3cccc(F)c3)C2C1 (stereo not drawn) [CBK283109]	109
CCN1C(=O)CC2(C1=O)C(=O)N(CCCN(C)S(C)(=O)=O)c1ccccc12 (stereo not drawn) [CBK075519]	101
O=C(O)c1sccc1NS(=O)(=O)Cc1ccccc1 [CBK004561]	92.3
CCn1cncc1CN1CC2CCCC(O)(c3ccc(F)cc3)C2C1 (stereo not drawn) [CBK282119]	104
COc1ccccc1-c1cc(Nc2cccc(N(C)C)c2)ncn1 [CBK091011]	95.5
COCCN(C)c1nc2c(c(=O)[nH]1)Cc1ccccc1OC2 [CBK306737]	105
CC(=O)N1CCC(N2CC[C@H](c3nnc(C(C)(C)C)o3)C2)CC1 [CBK289404]	82.4
CN(C)CCN(C)c1cncc(-c2cccc3ccccc23)n1 [CBK065709]	106
CCCC1c2cccn2CCN1S(=O)(=O)c1ccc2[nH]c(=O)[nH]c(=O)c2c1 (stereo not drawn) [CBK286388]	101
Cc1cc(C)n(CC(=O)N2CCOC(c3ccccc3Cl)C2)n1 (stereo not drawn) [CBK304927]	91.9
CN(C)C(=O)Cc1ccc(-c2ccccc2)cc1 [CBK012162]	94.2
CC(C)c1ccc(S(=O)(=O)NCC(C)(C)CO)cc1 [CBK043547]	110
Cc1ccc(S(=O)(=O)N2CCN(Cc3cc(Br)ccc3O)CC2)cc1 [CBK264242]	98.5
O=C1CCCN1CP(=O)(O)CN1CCCCC1 [CBK262302]	85.6
O=C(Cn1c(C(F)(F)F)nc2ccccc21)NCCN1CCCC1 [CBK267150]	97.8
O=C(Nc1ccc(Cl)cc1)N1Cc2nc[nH]c2C[C@H]1c1nc(-c2ccncc2)no1 [CBK288964]	91.4
CCC1c2cccn2CCN1Cc1cncn1CC (stereo not drawn) [CBK283012]	85.8
Cc1csc(NC(=O)c2cc(S(=O)(=O)N3CCCC3)cn2C)n1 [CBK295617]	87.8
COC(=O)c1cn(Cc2ccccc2)nn1 [CBK073903]	98.1
C=CCN(Cc1nc(-c2ccccc2)no1)C(=O)Nc1ccc(C)cc1 [CBK269859]	103
O=C(NCC(F)F)c1cn2cc(-c3cccs3)n(CC3CC3)c(=O)c2n1 [CBK307347]	105
Brc1ncccc1OCc1ccccc1 [CBK001458]	82.6
O=C(Cc1csc(-c2ccc(Cl)cc2)n1)Nc1ccccn1 [CBK107364]	85.8

SMILES	viability at 28.5 h, 10 µM [%]
Cc1nn(C)cc1-c1cncn1CCOc1ccc(Cl)cc1 [CBK281508]	87.5
COc1cccc(OC)c1-c1cn2ccnc2c(NCc2ccccn2)n1 [CBK037439]	93.7
COc1ccc(S(=O)(=O)NCc2ccc3c(c2)OCO3)cc1C(=O)O [CBK264070]	97.6
c1ccc(C(Oc2nccnc2-c2ccsc2)c2ccccc2)cc1 [CBK106765]	103
CCOC(=O)C1CCCN(CCC(=O)Nc2cccc(F)c2)C1 (stereo not drawn) [CBK264275C]	107
COC(=O)Cn1c(C(C)(C)C)cn2c3c(=O)n(C)c(=O)n(C)c3nc12 [CBK307555]	84.3
Cc1ccsc1CN1CCCCC1CO (stereo not drawn) [CBK026348]	107
CN1CCC(N(C)C(=O)NCc2ccc(C#N)cc2)C1 (stereo not drawn) [CBK156005]	89.3
CC(=O)Nc1cccc(NC(=O)c2cccc(Cn3cc(Cl)cn3)c2)c1 [CBK265899]	90.5
O=C(c1cccnc1)N1CCN(Cc2cccc(Oc3ccccc3)c2)CC1 [CBK263326G]	101
O=[N+]([O-])c1cc([N+](=O)[O-])c(Nc2ccncc2)c([N+](=O)[O-])c1Nc1ccncc1 [CBK278276]	96.1
CCCc1cc(C(=O)OC)c(NC(=O)CC2Nc3ccccc3NC2=O)s1 (stereo not drawn) [CBK269451]	107
CC(C)c1ccccc1NC(=O)NC(=O)C1CCN(CCc2ccc(C#N)cc2)CC1 [CBK035010]	90.3
CN1CCN(C)C(COc2cccc(C(F)(F)F)n2)C1 (stereo not drawn) [CBK113292]	106
NC1=NNC2=C(c3ccc(F)cc3)NNN12 [CBK093659]	86
O=C(NC1(c2ccc(Cl)cc2)CC1)C1CCS(=O)(=O)C1 (stereo not drawn) [CBK282765]	75.3
Cc1ccc(C)c(S(=O)(=O)NCCCn2ccnc2)c1 [CBK262205]	109
Cc1ccc2c(c1)C(NC(=O)C1CC1C)CC1(CCOCC1)O2 (stereo not drawn) [CBK284880]	91.8
Cc1nc(CC(=O)Nc2nn(C)c3cccc(N4CCOCC4)c23)cs1 [CBK306627]	89.7
Cc1ccc(NC(=O)Cn2cnc3sc(C(=O)Nc4ccccc4)c(C)c3c2=O)cc1 [CBK265931]	101
COc1ccccc1-c1cnccc1-n1ccnc1 [CBK177153]	100
